Measurements from ChEMBL document CHEMBL6096702, “Discovery of a Novel p38α-MK2 Complex Inhibitor as a Potential Choice for Autoimmune Diseases” (J Med Chem, 2025).
Converted amounts (≈) assume the structure as drawn. The source made the active and inactive calls. The calls are words filed in the database; no cut-off is given here.

System: not listed separately
Assay: Inhibition of N-terminal GST-tagged wildtype human P38alpha (4 to 152 residues) extracted from Escherichia coli/GST-tagged MK2 (unknown origin) assessed as reduction in HSP27 phosphorylation incubated for 2 hrs in presence of ATP and HSP27-FITC peptide by fluorescence polarization based IMAP assay
Details: not given

SMILES	IC50
Cc1cnc(-c2cccc(C(C)(C)O)c2)c(F)c1-n1c(C)cc(O[C@@H](C)c2ncc(F)cc2F)c(Cl)c1=O	1.9 nM
Cc1cnc(-c2cccc(C(C)(C)O)c2Cl)c(F)c1-n1c(C)cc(OCc2ncc(F)cc2F)c(Cl)c1=O	6 nM
Cc1cnc(-c2ccnc(C(C)(C)O)n2)cc1-n1c(C)cc(OCc2ncc(F)cc2F)c(Cl)c1=O [ZUNSEMETINIB]	6.6 nM

System: not listed separately
Assay: Inhibition of N-terminal GST-tagged wildtype human P38alpha (4 to 152 residues) extracted from Escherichia coli/GST-tagged PRAK (unknown origin) assessed as reduction in HSP27 phosphorylation incubated for 2 hrs in presence of ATP and HSP27-FITC peptide by fluorescence polarization based IMAP assay
Details: not given

SMILES	IC50
Cc1cnc(-c2cccc(C(C)(C)O)c2)c(F)c1-n1c(C)cc(O[C@@H](C)c2ncc(F)cc2F)c(Cl)c1=O	3780 nM
Cc1cnc(-c2ccnc(C(C)(C)O)n2)cc1-n1c(C)cc(OCc2ncc(F)cc2F)c(Cl)c1=O [ZUNSEMETINIB]	6410 nM

System: not listed separately
Assay: Selectivity ratio of IC50 for inhibition of N-terminal GST-tagged wildtype human P38alpha (4 to 152 residues) extracted from Escherichia coli/GST-tagged PRAK (unknown origin) to IC50 for inhibition of N-terminal GST-tagged wildtype human P38alpha (4 to 152 residues) extracted from Escherichia coli/GST-tagged MK2 (unknown origin)
Details: not given

SMILES	Ratio IC50
Cc1cnc(-c2cccc(C(C)(C)O)c2)c(F)c1-n1c(C)cc(O[C@@H](C)c2ncc(F)cc2F)c(Cl)c1=O	1990
Cc1cnc(-c2ccnc(C(C)(C)O)n2)cc1-n1c(C)cc(OCc2ncc(F)cc2F)c(Cl)c1=O [ZUNSEMETINIB]	971

System: not listed separately
Assay: AUClast in male Sprague-Dawley rat at 1 mg/kg, iv measured after 24 hrs by LC-MS/MS analysis
Type: ADME, organism-based
Details: in vivo

SMILES	AUC(0-t) at 24 h
Cc1cnc(-c2cccc(C(C)(C)O)c2)c(F)c1-n1c(C)cc(O[C@@H](C)c2ncc(F)cc2F)c(Cl)c1=O	3230 ng·h/mL
Cc1cnc(-c2ccnc(C(C)(C)O)n2)cc1-n1c(C)cc(OCc2ncc(F)cc2F)c(Cl)c1=O [ZUNSEMETINIB]	1280 ng·h/mL

System: not listed separately
Assay: Clearance in male Sprague-Dawley rat at 1 mg/kg, iv measured after 24 hrs by LC-MS/MS analysis
Type: ADME, organism-based
Details: in vivo

SMILES	clearance
Cc1cnc(-c2cccc(C(C)(C)O)c2)c(F)c1-n1c(C)cc(O[C@@H](C)c2ncc(F)cc2F)c(Cl)c1=O	5 mL/min/kg
Cc1cnc(-c2ccnc(C(C)(C)O)n2)cc1-n1c(C)cc(OCc2ncc(F)cc2F)c(Cl)c1=O [ZUNSEMETINIB]	13.1 mL/min/kg

System: not listed separately
Assay: Volume of distribution at steady state in male Sprague-Dawley rat at 1 mg/kg, iv measured after 24 hrs by LC-MS/MS analysis
Type: ADME, organism-based
Details: in vivo, read-out: Vdss

SMILES	Vd
Cc1cnc(-c2cccc(C(C)(C)O)c2)c(F)c1-n1c(C)cc(O[C@@H](C)c2ncc(F)cc2F)c(Cl)c1=O	0.9 L/kg
Cc1cnc(-c2ccnc(C(C)(C)O)n2)cc1-n1c(C)cc(OCc2ncc(F)cc2F)c(Cl)c1=O [ZUNSEMETINIB]	0.8 L/kg

System: not listed separately
Assay: Half-life in male Sprague-Dawley rat at 1 mg/kg, iv measured after 24 hrs by LC-MS/MS analysis
Type: ADME, organism-based
Details: in vivo

SMILES	half-life
Cc1cnc(-c2cccc(C(C)(C)O)c2)c(F)c1-n1c(C)cc(O[C@@H](C)c2ncc(F)cc2F)c(Cl)c1=O	2.2 h
Cc1cnc(-c2ccnc(C(C)(C)O)n2)cc1-n1c(C)cc(OCc2ncc(F)cc2F)c(Cl)c1=O [ZUNSEMETINIB]	1.1 h

System: not listed separately
Assay: MRT in male Sprague-Dawley rat at 1 mg/kg, iv measured after 24 hrs by LC-MS/MS analysis
Type: ADME, organism-based
Details: in vivo

SMILES	MRT
Cc1cnc(-c2cccc(C(C)(C)O)c2)c(F)c1-n1c(C)cc(O[C@@H](C)c2ncc(F)cc2F)c(Cl)c1=O	3 h
Cc1cnc(-c2ccnc(C(C)(C)O)n2)cc1-n1c(C)cc(OCc2ncc(F)cc2F)c(Cl)c1=O [ZUNSEMETINIB]	1.1 h

System: not listed separately
Assay: Cmax in male Sprague-Dawley rat at 2 mg/kg, po measured after 24 hrs by LC-MS/MS analysis
Type: ADME, organism-based
Details: in vivo

SMILES	Cmax
Cc1cnc(-c2cccc(C(C)(C)O)c2)c(F)c1-n1c(C)cc(O[C@@H](C)c2ncc(F)cc2F)c(Cl)c1=O	1030 ng/mL
Cc1cnc(-c2ccnc(C(C)(C)O)n2)cc1-n1c(C)cc(OCc2ncc(F)cc2F)c(Cl)c1=O [ZUNSEMETINIB]	415 ng/mL

System: not listed separately
Assay: AUClast in male Sprague-Dawley rat at 2 mg/kg, po measured after 24 hrs by LC-MS/MS analysis
Type: ADME, organism-based
Details: in vivo

SMILES	AUC(0-t) at 24 h
Cc1cnc(-c2cccc(C(C)(C)O)c2)c(F)c1-n1c(C)cc(O[C@@H](C)c2ncc(F)cc2F)c(Cl)c1=O	8050 ng·h/mL
Cc1cnc(-c2ccnc(C(C)(C)O)n2)cc1-n1c(C)cc(OCc2ncc(F)cc2F)c(Cl)c1=O [ZUNSEMETINIB]	1830 ng·h/mL

System: not listed separately
Assay: Oral bioavailability in male Sprague-Dawley rat at 2 mg/kg measured after 24 hrs by LC-MS/MS analysis
Type: ADME, organism-based
Details: in vivo

SMILES	bioavailability
Cc1cnc(-c2cccc(C(C)(C)O)c2)c(F)c1-n1c(C)cc(O[C@@H](C)c2ncc(F)cc2F)c(Cl)c1=O	125%
Cc1cnc(-c2ccnc(C(C)(C)O)n2)cc1-n1c(C)cc(OCc2ncc(F)cc2F)c(Cl)c1=O [ZUNSEMETINIB]	71%

System: not listed separately
Assay: AUClast in male Beagle dog at 1 mg/kg, iv measured after 24 hrs by LC-MS/MS analysis
Type: ADME, organism-based, Canis lupus familiaris
Details: in vivo

SMILES	AUC(0-t) at 24 h
Cc1cnc(-c2ccnc(C(C)(C)O)n2)cc1-n1c(C)cc(OCc2ncc(F)cc2F)c(Cl)c1=O [ZUNSEMETINIB]	2230 ng·h/mL

System: not listed separately
Assay: Clearance in male Beagle dog at 1 mg/kg, iv measured after 24 hrs by LC-MS/MS analysis
Type: ADME, organism-based, Canis lupus familiaris
Details: in vivo

SMILES	clearance
Cc1cnc(-c2ccnc(C(C)(C)O)n2)cc1-n1c(C)cc(OCc2ncc(F)cc2F)c(Cl)c1=O [ZUNSEMETINIB]	7.5 mL/min/kg

System: not listed separately
Assay: Volume of distribution at steady state in male Beagle dog at 1 mg/kg, iv measured after 24 hrs by LC-MS/MS analysis
Type: ADME, organism-based, Canis lupus familiaris
Details: in vivo, read-out: Vdss

SMILES	Vd
Cc1cnc(-c2ccnc(C(C)(C)O)n2)cc1-n1c(C)cc(OCc2ncc(F)cc2F)c(Cl)c1=O [ZUNSEMETINIB]	1.5 L/kg

System: not listed separately
Assay: Half-life in male Beagle dog at 1 mg/kg, iv measured after 24 hrs by LC-MS/MS analysis
Type: ADME, organism-based, Canis lupus familiaris
Details: in vivo

SMILES	half-life
Cc1cnc(-c2ccnc(C(C)(C)O)n2)cc1-n1c(C)cc(OCc2ncc(F)cc2F)c(Cl)c1=O [ZUNSEMETINIB]	3.4 h

System: not listed separately
Assay: MRT in male Beagle dog at 1 mg/kg, iv measured after 24 hrs by LC-MS/MS analysis
Type: ADME, organism-based, Canis lupus familiaris
Details: in vivo

SMILES	MRT
Cc1cnc(-c2ccnc(C(C)(C)O)n2)cc1-n1c(C)cc(OCc2ncc(F)cc2F)c(Cl)c1=O [ZUNSEMETINIB]	3.4 h

System: not listed separately
Assay: Cmax in male Beagle dog at 2 mg/kg, po measured after 24 hrs by LC-MS/MS analysis
Type: ADME, organism-based, Canis lupus familiaris
Details: in vivo

SMILES	Cmax
Cc1cnc(-c2ccnc(C(C)(C)O)n2)cc1-n1c(C)cc(OCc2ncc(F)cc2F)c(Cl)c1=O [ZUNSEMETINIB]	587 ng/mL

System: not listed separately
Assay: AUClast in male Beagle dog at 2 mg/kg, po measured after 24 hrs by LC-MS/MS analysis
Type: ADME, organism-based, Canis lupus familiaris
Details: in vivo

SMILES	AUC(0-t) at 24 h
Cc1cnc(-c2ccnc(C(C)(C)O)n2)cc1-n1c(C)cc(OCc2ncc(F)cc2F)c(Cl)c1=O [ZUNSEMETINIB]	3230 ng·h/mL

System: not listed separately
Assay: Oral bioavailability in male Beagle dog at 2 mg/kg measured after 24 hrs by LC-MS/MS analysis
Type: ADME, organism-based, Canis lupus familiaris
Details: in vivo

SMILES	bioavailability
Cc1cnc(-c2ccnc(C(C)(C)O)n2)cc1-n1c(C)cc(OCc2ncc(F)cc2F)c(Cl)c1=O [ZUNSEMETINIB]	73%

System: PBMC
Assay: Inhibition of LPS-induced TNF-alpha production in human PBMC cells at 0.01 to 10000 nM preincubated with compound for 1 hrs followed by LPS addition and measured after 4 hrs
Type: functional, cell-based
Details: dose 0.01-10000 nM, time 5.0 hrs

SMILES	inhibition
Cc1cnc(-c2ccnc(C(C)(C)O)n2)cc1-n1c(C)cc(OCc2ncc(F)cc2F)c(Cl)c1=O [ZUNSEMETINIB]	Active

System: PBMC
Assay: Inhibition of LPS-induced IL-6 production in human PBMC cells at 0.01 to 10000 nM preincubated with compound for 1 hrs followed by LPS addition and measured after 4 hrs
Type: functional, cell-based
Details: dose 0.01-10000 nM, time 5.0 hrs

SMILES	inhibition
Cc1cnc(-c2ccnc(C(C)(C)O)n2)cc1-n1c(C)cc(OCc2ncc(F)cc2F)c(Cl)c1=O [ZUNSEMETINIB]	Active

System: PBMC
Assay: Inhibition of LPS-induced IL-8 production in human PBMC cells at 0.01 to 10000 nM preincubated with compound for 1 hrs followed by LPS addition and measured after 4 hrs
Type: functional, cell-based
Details: dose 0.01-10000 nM, time 5.0 hrs

SMILES	inhibition
Cc1cnc(-c2ccnc(C(C)(C)O)n2)cc1-n1c(C)cc(OCc2ncc(F)cc2F)c(Cl)c1=O [ZUNSEMETINIB]	Active

System: not listed separately
Assay: Solubility of compound in PBS at pH 7.4 measured after 4 to 24 hrs by LC-MS analysis
Type: physicochemical
Details: time 4-24 hrs

SMILES	solubility
Cc1cnc(-c2ccnc(C(C)(C)O)n2)cc1-n1c(C)cc(OCc2ncc(F)cc2F)c(Cl)c1=O [ZUNSEMETINIB]	5.6 µg/mL (≈ 10.9 µM)

System: not listed separately
Assay: Half-life in female Lewis rat at 1 mg/kg, po measured after 24 hrs by LC-MS/MS analysis
Type: ADME, organism-based
Details: in vivo

SMILES	half-life
Cc1cnc(-c2ccnc(C(C)(C)O)n2)cc1-n1c(C)cc(OCc2ncc(F)cc2F)c(Cl)c1=O [ZUNSEMETINIB]	1.9 h

System: not listed separately
Assay: Cmax in female Lewis rat at 1 mg/kg, po measured after 24 hrs by LC-MS/MS analysis
Type: ADME, organism-based
Details: in vivo

SMILES	Cmax
Cc1cnc(-c2ccnc(C(C)(C)O)n2)cc1-n1c(C)cc(OCc2ncc(F)cc2F)c(Cl)c1=O [ZUNSEMETINIB]	217 ng/mL

System: not listed separately
Assay: AUC (0 to 24 hrs) in female Lewis rat at 1 mg/kg, po measured after 24 hrs by LC-MS/MS analysis
Type: ADME, organism-based
Details: in vivo

SMILES	AUC(0-t) at 24 h
Cc1cnc(-c2ccnc(C(C)(C)O)n2)cc1-n1c(C)cc(OCc2ncc(F)cc2F)c(Cl)c1=O [ZUNSEMETINIB]	682 ng·h/mL

System: not listed separately
Assay: Half-life in female Lewis rat at 3 mg/kg, po measured after 24 hrs by LC-MS/MS analysis
Type: ADME, organism-based
Details: in vivo

SMILES	half-life
Cc1cnc(-c2ccnc(C(C)(C)O)n2)cc1-n1c(C)cc(OCc2ncc(F)cc2F)c(Cl)c1=O [ZUNSEMETINIB]	1.6 h

System: not listed separately
Assay: Cmax in female Lewis rat at 3 mg/kg, po measured after 24 hrs by LC-MS/MS analysis
Type: ADME, organism-based
Details: in vivo

SMILES	Cmax
Cc1cnc(-c2ccnc(C(C)(C)O)n2)cc1-n1c(C)cc(OCc2ncc(F)cc2F)c(Cl)c1=O [ZUNSEMETINIB]	781 ng/mL

System: not listed separately
Assay: AUC (0 to 24 hrs) in female Lewis rat at 3 mg/kg, po measured after 24 hrs by LC-MS/MS analysis
Type: ADME, organism-based
Details: in vivo

SMILES	AUC(0-t) at 24 h
Cc1cnc(-c2ccnc(C(C)(C)O)n2)cc1-n1c(C)cc(OCc2ncc(F)cc2F)c(Cl)c1=O [ZUNSEMETINIB]	2520 ng·h/mL

System: Rattus norvegicus
Assay: Antiarthritic activity in Mycobacterium tuberculosis H37R-induced female Lewis rat model of arthritis assessed as reduction in paw inflammation at 3 mg/kg, po administered twice daily for 15 days starting from day 13 after adjuvant administration by micro-CT analysis
Type: functional, organism-based
Details: time 15.0 day

SMILES	Activity
Cc1cnc(-c2ccnc(C(C)(C)O)n2)cc1-n1c(C)cc(OCc2ncc(F)cc2F)c(Cl)c1=O [ZUNSEMETINIB]	inactive
